Experimental data taken from patent EP4361137A1, “PRUNE1 INHIBITORS AND THERAPEUTIC USE THEREOF” (CEINGE Biotecnologie Avanzate Franco Salvatore s.c. a r.l., priority 2022, dated 2024).

Key:
[1] = tested on: CD4+/ CD8+ T cells; test: Tconv to Treg conversion of T cells grown in conditioned media (immunofluorescence CD4/FOXP3); assay type: cell-based, FVB mice
Experimental: The isolation of untouched mouse CD4+/ CD8+ T cells from single-cell suspensions from spleen of n.2 naive FVB mice were performed by using Pan T Cell Isolation Kit II, mouse (130-095-130, Miltenyi biotec), according to the manufacturer instruction. Once isolated, T cells were grown for 48 hours in the conditioned media previously collected for 24 hours from pooled vehicle- or 10 µM LEO-AA7.5(S)T-treated MATH1-Prune1/TP53-/- cells.
T cells grown for 48 hours in conditioned media collected from vehicle- or LEO-AA7.5(S)T-treated MATH1-Prune1/TP53-/- cells were fixed in 4% paraformaldehyde in phosphate-buffered saline (PBS) for 30 min, washed three times with PBS, and permeabilized for 15 min with 0.1% Triton X-100 (215680010; Acros Organics) diluted in PBS. The cells were then blocked with 3% bovine serum albumin (A9418; Sigma) in PBS for 1 h at room temperature. The samples were incubated with the appropriate primary antibodies overnight at 4 °C: anti-FOXP3 (1:2000; ab54501; Abcam); anti-CD4 (1:100; sc-19641, SantaCruz). After washing with PBS, the samples were incubated with the secondary antibody at room temperature for 1 h, as anti-mouse Alexa Fluor 488 (1:200; ab 150113; Abcam) or anti-rabbit Alexa Fluor 546 (1:200; Abcam). DNA was stained with DAPI (1:1000; #62254, Thermo Fisher). The slides were washed and mounted with cover slips with 50% glycerol (G5150; Sigma-Aldrich). […]

[2] = tested on: D425-MED-Luc; test: Orthotopic xenograft of D425-MED-Luc cells in nude mice; assay type: in vivo; conditions: 6 mg/kg/day intraperitoneally; for toxicity by total body weight, treated vs control mice / intracranial tumor growth (bioluminescence, photon emission) / PRUNE1 levels in cerebellar tumours (immunoblotting): HCl salt; for intracranial tumor growth (bioluminescence, photon emission): T21, after 14 days of treatment; for PRUNE1 levels in cerebellar tumours (immunoblotting): n.3 treated vs n.3 vehicle mice
Experimental: Starting after seven days from tumour implantation (i.e., once the tumours were established) the mice (grouped according to their bioluminescence values) were injected intraperitoneally with LEO-AA7.5(S)T at 6 mg/kg/day, or with water as the vehicle for the control group. After n.28 days from tumour implantation (i.e., after three weeks of AA7.5 treatment), the mice were sacrificed, and the organs were collected.
D425-MED-luc [Ferrucci et al., 2018] were implanted into the right cerebellar hemisphere of female (n.14) athymic nude mice (5 weeks old), as previously described [Asadzadeh et al., 2018], to establish orthotopic intracerebellar D425-MED-Luc xenograft models. Nude mice were anaesthetised with Ketamine/ Xylazine (87.5 mg/kg, 12.5 mg/kg, respectively). The mice were then placed in a stereotactic frame by hooking their incisors onto the frame hold. A small skin incision (length, 1 mm) and a burr hole (diameter, 0.7 mm) were created using a microsurgical drill (Fine Science Tools, Foster City, CA, USA). D425-MED-Luc cells (1 ×10^5)were resuspended in 10 µL PBS and injected slowly through the burr hole into the right cerebellar hemisphere (stereotactic coordinates from Bregma: anteroposterior, 5.5 mm; right lateral, 2.1 mm; dorsoventral 5.0 mm), with a steady force over 30 s, using a 10-AL, 26-gauge Hamilton Gastight model 1701RN syringe needle (SigmaAldrich) that was inserted perpendicular to the cranial surface. The incision was sutured using Safil polyglycolic acid synthetic absorbable suture (6/0). The mice were kept on a warming blanket after the surgery, to help them to maintain their body temperature. Their mobility and respiratory patterns were observed continuously, and once the mice had recovered from the anaesthesia; they were place in a sterile housing cage. The mice were monitored daily for development of potential neurological deficits. Seven days after the implantation of the cells, the mice were imaged, and tumour growth was evaluated by bioluminescence acquisition using an imaging system (IVIS 3D Illumina; Xenogen/ Caliper). For the acquisitions, the mice were anaesthetised by inhalational of isoflurane, and the D-luciferin (122799; PerkinElmer) (15 mg/mL stock) was injected intraperitoneally (100 µL per 10 g body weight). At 5 min from the luciferin injection, the mice were imaged for 3 min. To quantify the bioluminescence, the integrated fluxes of photons (p/s) within each area of interest were determined using the Living Images Software Package 3.2 (Xenogen-Perkin Elmer). For LEO-AA7.5(S)T in-vivo treatment, starting after seven days from tumour implantation (i.e., once the tumours were established) the mice (grouped according to their bioluminescence values) were injected intraperitoneally with LEO-AA7.5(S)T at 6 mg/kg/day, or with water as the vehicle for the control group. After 28 days from tumour implantation (i.e., after three weeks of AA7.5 treatment), the mice were sacrificed, and the organs were collected.

[3] = listed as (S)-(1-(4-((4-methoxybenzyl)amino)-1,3,5-triazin-2-yl)piperidin-3-yl)methanol HC

**Q.** `COc1ccc(CNc2ncnc(N3CCC[C@H](CO)C3)n2)cc1.Cl` [LEO-AA7.5(S)T, (S)-(1-(4-((4-methoxybenzyl)amino)-1,3,5-triazin-2-yl)piperidin-3-yl)methanol HCl salt] was tested. Which “percentage of Tregs (CD4+FOXP3+) among T cells” value ([1]; T cells 48 hours in conditioned media of cells treated with 10 µM for 24 hours, vs vehicle conditioned media) did it give?
**A.** Its value is “decrease”.

**Q.** And the “inhibition of the conversion from Tconv to Treg cells, compared with 100 µM AA7.1” value ([1]; ex vivo, 10 µM vs 100 µM AA7.1)?
**A.** Its value is “comparable”.

**Q.** What about the “EMT in cerebellar tumours (N-cadherin loss, increased E-cadherin)” value [2] of the same compound?
**A.** Its value is “inhibition of EMT”.

**Q.** And the “activated PTEN in cerebellar tumours (immunoblotting)” value [2]?
**A.** Its value is “overexpression”.

**Q.** What about the “nuclear phosphorylated SMAD2/3 and OTX2 in cerebellar tumours (immunoblotting)” value [2] of the same compound?
**A.** Its value is “inhibition”.

**Q.** What about the “toxicity by total body weight, treated vs control mice” value [2] of the same compound?
**A.** Its value is “No significant differences”.

**Q.** What about the “intracranial tumor growth (bioluminescence, photon emission)” value [2] of the same compound?
**A.** Its value is “impairment of tumour growth”.

**Q.** What about the “intracranial tumor growth (bioluminescence, photon emission)” value [2, 3] of the same compound?
**A.** Its value is “significantly decreased”.

**Q.** And the “treated mice showing metastases in the spinal cord” value ([2]; control mice 7 out of 7)?
**A.** Its value is “two out of seven”.

**Q.** What about the “toxicity by total body weight, treated vs control mice” value [2, 3] of the same compound?
**A.** The value was “no decrease in total body weight”.

**Q.** And the “PRUNE1 levels in cerebellar tumours (immunoblotting)” value [2]?
**A.** Its value is “downregulation of Prune1”.

**Q.** And the “PRUNE1 levels in cerebellar tumours (immunoblotting)” value [2, 3]?
**A.** Its value is “reduced PRUNE1 levels”.
